Test results published in patent US11401278B2, “Macrocyclic indole derivatives” (The Broad Institute, Inc., priority 2017, dated 2022).
Counter-ions that a name gives are not always drawn. Like-named read-outs stand apart in the source and are kept apart here.

Experiments:
SUDHL10 = assay: Induction of caspase-3/7 activity (Assay 4), SUDHL10; format: cell-based; conditions: caspase-3/7 induction, median
How it was run: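 Caspase-3/7 activity measured by Caspase-Glo 3/7 luminescence in DLBCL cells after 3 h compound treatment at 37 °C. Medium-only background subtracted. EC50 fitted with C0 fixed at 1 and top set to the reference compound's plateau/max induction.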

MCL-1 = MCL-1 (Homo sapiens (Human), UniProt Q07820, K194A/K197A/R201A); assay: Protein-protein interaction assay MCL-1/Noxa BH3 peptide (MCL-1 assay, TR-FRET); format: binding; conditions: MBP-MCL-1 / Noxa BH3 peptide, median
Chain of MCL-1 (Q07820 whole entry K194A/K197A/R201A, looked up, the tested form may be a part): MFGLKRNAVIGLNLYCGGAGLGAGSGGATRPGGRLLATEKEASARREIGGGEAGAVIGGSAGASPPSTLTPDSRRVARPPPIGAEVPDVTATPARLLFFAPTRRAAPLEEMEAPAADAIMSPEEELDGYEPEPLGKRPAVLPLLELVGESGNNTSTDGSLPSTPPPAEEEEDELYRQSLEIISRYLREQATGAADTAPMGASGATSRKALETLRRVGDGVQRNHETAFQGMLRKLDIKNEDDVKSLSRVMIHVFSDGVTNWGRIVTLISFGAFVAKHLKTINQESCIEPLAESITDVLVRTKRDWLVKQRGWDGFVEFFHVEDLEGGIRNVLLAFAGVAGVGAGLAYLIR
How it was run: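 MBP-fused MCL-1 (aa 173-329, 1 nM) was pre-incubated with compound for 10 min at 22° C, then biotinylated Noxa BH3 peptide (1 nM) was added with anti-MBP-Eu cryptate and streptavidin-XL665. Incubation was 1 h at 22° C, then overnight at 4° C, in Tris pH 7 buffer. The 665/620 nm ratio over 11 concentrations (0.1 nM-20 μM) gave IC50 by 4-parameter fit.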

SUDHL5 = assay: Induction of cytotoxicity (Assay 6), SUDHL5; conditions: read-out: Cytotox SUDHL5 [M] (median) IC50, CellTiter-Glo, 5 hours, SUDHL5
Experimental: Assay 6 Induction of Cytotoxicity Upon Treatment of Cells with Selected Compounds
Therefore, cytotoxicity assays were run in parallel in SUDHL5 and SUDHL10 cells.
The different cell lines were plated in culture medium (RPMI 1640 [GIBCO #22400-089] supplemented with 10% Fetal Bovine Serum) at a density of 3,300 cells in 30 μl/well in a sterile, solid black, flat bottom, polystyrene, TC-treated 384-well microplate (Corning #3571) using Multidrop Combi Reagent Dispenser. As a control, medium without cells was also added to the plate. Cells were incubated in a humidified incubator at 37° C. overnight. On the next day, the cells were treated with compounds (stock solution, 10 mM in DMSO) using the HP D300 Digital Dispenser in a concentration range of 3.3×10e-5 M (33 μM) to 5×10e-9 M (5 nM) in a single-dot curve with at least 16 dilutions and a DMSO concentration of 0.33%. Rim wells were excluded. The cells were incubated for 5 hours in a humidified incubator at 37° C. After this incubation, 30 μl of CellTiter-Glo® Luminescent Cell Viability reagent (Promega, G7573) was added to each well using the Multidrop Combi Reagent Dispenser, followed by 15 minutes incubation on a shaker at room temperature. Finally, luminescence was read at 0.1 ms, with a gain of 3000 using the PHERAstar FS microplate reader (BMG Labtech).

Row | EC50 (SUDHL10; Homo sapiens, SU-DHL10, 3 h) | IC50 (MCL-1) | EC50 (SUDHL10; 3 hours) | SMILES | IC50 (SUDHL5; Homo sapiens, SU-DHL-5, 5 h) | IC50 (SUDHL5)
1 | 5100 nM | 4.2 nM | – | CCc1c2c(nn1C)CN(C)S(=O)(=O)CCCn1c(C(=O)O)c(CCCOc3cc(C)c(Cl)c(C)c3)c3ccc(F)c-2c31 (racemic) [Example 33, (rac)-1-(3-(4-Chloro-3,5-dimethylphenoxy)propyl)-12-ethyl-13-fluoro-8,11-dimethyl-5,6,9,11-tetrahydro-4H,8H-pyrazolo[3′,4′:4,5][1]thia[2,8]diazacycloundecino[6,7,8-hi]indole-2-carboxylic acid 7,7-dioxide] | 2.6e-06 M | –
2 | 3600 nM | 3.2 nM | – | CCc1c2c(nn1C)CN(C)S(=O)(=O)CCCn1c(C(=O)O)c(CCCOc3cccc4c3CCCC4)c3ccc(F)c-2c31 (racemic) [Example 34, (rac)-12-Ethyl-13-fluoro-8,11-dimethyl-1-(3-((5,6,7,8-tetrahydronaphthalen-1-yl)oxy)propyl)-5,6,9,11-tetrahydro-4H,8H-pyrazolo[3′,4′:4,5][1]thia[2,8]diazacycloundecino[6,7,8-hi]indole-2-carboxylic acid 7,7-dioxide] | 1.4e-06 M | –
3 | 2600 nM | 3.5 nM | – | CCc1c2c(nn1C)CN(C)S(=O)(=O)CCCn1c(C(=O)O)c(CCCOc3ccc(F)c4ccccc34)c3ccc(F)c-2c31 (racemic) [Example 35, (rac)-12-Ethyl-13-fluoro-1-(34(4-fluoronaphthalen-1-yl)oxy)propyl)-8,11-dimethyl-5,6,9,11-tetrahydro-4H,8H-pyrazolo[3′,4′:4,5][1]thia[2,8]diazacycloundecino[6,7,8-hi]indole-2-carboxylic acid 7,7-dioxide] | 1.6e-06 M | –
4 | 1700 nM | 3 nM | – | Cc1c2c(nn1C)C(CCN1CCOCC1)N(C)S(=O)(=O)CCCn1c(C(=O)O)c(CCCOc3cccc4ccccc34)c3cccc-2c31 (racemic) [Example 44, (rac)-2,3,14-trimethyl-15-[2-(rac)-(morpholin-4-yl)ethyl]-7-[3-(1-naphthyloxy)propyl]-11,12,14,15-tetrahydro-2H,10H-pyrazolo[3′,4′:4,5][1,2,8]thiadiazacycloundecino[6,7,8-hi]indole-8-carboxylic acid 13,13-dioxide (Mixture of Stereoisomers)] | 1.3e-06 M | –
5 | 320 nM | 0.8 nM | – | Cc1c2c(nn1C)C(N1CCOCC1)CCN(C)S(=O)(=O)CCCn1c(C(=O)O)c(CCCOc3cccc4cc(F)ccc34)c3ccc(Cl)c-2c31 (racemic) [Example 47, (rac)-15-chloro-1-(3-((6-fluoronaphthalen-1-yl)oxy)propyl)-8,13,14-trimethyl-11-(rac)-morpholino-5,6,9,10,11,13-hexahydro-4H,8H-pyrazolo[3′,4′:6,7][1]thia[2,10]diazacyclotridecino[8,9,10-hi]indole-2-carboxylic acid 7,7-dioxide (Mixture of Stereoisomers)] | 3.6e-07 M | –
6 | – | 0.93 nM | 9.7 nM | Cc1c2c(nn1C)C(CCN1CCOCC1)N(C)S(=O)(=O)CCCn1c(C(=O)O)c(CCCOc3cccc4cc(F)ccc34)c3ccc(Cl)c-2c31 (racemic) [Example 48, (rac)-4-chloro-7-{3-[(6-fluoro-1-naphthyl)oxy]propyl}-2,3,14-trimethyl-15-(rac)-[2-(morpholin-4-yl)ethyl]-11,12,14,15-tetrahydro-2H,10H-pyrazolo[3′,4′:4,5][1,2,8]thiadiazacycloundecino[6,7,8-hi]indole-8-carboxylic acid 13,13-dioxide (Mixture of Stereoisomers)] | – | 1.4e-08 M
7 | 270 nM | 3.2 nM | – | COc1ccc(CN2Cc3nn(C)c(C)c3-c3c(Cl)ccc4c(CCCOc5cccc6cc(F)ccc56)c(C(=O)O)n(c34)CCCS2(=O)=O)c(OC)c1 (racemic) [Example 49, (rac)-4-chloro-14-(2,4-dimethoxybenzyl)-7-{3-[(6-fluoro-1-naphthyl)oxy]propyl}-2,3-dimethyl-11,12,14,15-tetrahydro-2H,10H-pyrazolo[3′,4′:4,5][1,2,8]thiadiazacycloundecino[6,7,8-hi]indole-8-carboxylic acid 13,13-dioxide] | 1.8e-07 M | –
8 | 2800 nM | 0.74 nM | – | Cc1c2c(nn1C)CNS(=O)(=O)CCCn1c(C(=O)O)c(CCCOc3cccc4cc(F)ccc34)c3ccc(Cl)c-2c31 (racemic) [Example 50, (rac)-4-chloro-7-{3-[(6-fluoro-1-naphthyl)oxy]propyl}-2,3-dimethyl-11,12,14,15-tetrahydro-2H,10H-pyrazolo[3′,4′:4,5][1,2,8]thiadiazacycloundecino[6,7,8-hi]indole-8-carboxylic acid 13,13-dioxide] | 1.4e-06 M | –
9 | – | 1.7 nM | 770 nM | CCc1c2c(nn1C)CN(C1CC1)S(=O)(=O)CCCn1c(C(=O)O)c(CCCOc3cccc4cc(F)ccc34)c3ccc(Cl)c-2c31 (racemic) [Example 53, (rac)-4-chloro-14-cyclopropyl-3-ethyl-7-{3-[(6-fluoro-1-naphthyl)oxy]propyl}-2-methyl-11,12,14,15-tetrahydro-2H,10H-pyrazolo[3′,4′:4,5][1,2,8]thiadiazacycloundecino[6,7,8-hi]indole-8-carboxylic acid 13,13-dioxide] | – | 8.1e-07 M
10 | 160 nM | 2.1 nM | – | CCc1c2c(nn1C)CN(CC)S(=O)(=O)CCCn1c(C(=O)O)c(CCCOc3cccc4cc(F)ccc34)c3ccc(Cl)c-2c31 (racemic) [Example 56, (rac)-4-chloro-3,14-diethyl-7-{3-[(6-fluoro-1-naphthyl)oxy]propyl}-2-methyl-11,12,14,15-tetrahydro-2H,10H-pyrazolo[3′,4′:4,5][1,2,8]thiadiazacycloundecino[6,7,8-hi]indole-8-carboxylic acid 13,13-dioxide] | 2.8e-07 M | –
11 | – | 1.9 nM | 78 nM | CCc1c2c(nn1C)C(CCC1CCOCC1)N(C)S(=O)(=O)CCCn1c(C(=O)O)c(CCCOc3cccc4cc(F)ccc34)c3ccc(Cl)c-2c31 (racemic) [Example 59, (rac)-4-chloro-3-ethyl-7-{3-[(6-fluoro-1-naphthyl)oxy]propyl}-2,14-dimethyl-15-[2-(tetrahydro-2H-pyran-4-yl)ethyl]-11,12,14,15-tetrahydro-2H,10H-pyrazolo[3′,4′:4,5][1,2,8]thiadiazacycloundecino[6,7,8-hi]indole-8-carboxylic acid 13,13-dioxide (Racemate 2)] | – | 5.9e-08 M
12 | – | 2.4 nM | 32 nM | CCc1c2c(nn1C)C(CCC1CCOCC1)N(C)S(=O)(=O)CCCn1c(C(=O)O)c(CCCOc3cccc4cc(F)ccc34)c3ccc(Cl)c-2c31 (racemic) [Example 60, (rac)-4-chloro-3-ethyl-7-{3-[(6-fluoro-1-naphthyl)oxy]propyl}-2,14-dimethyl-15-[2-(tetrahydro-2H-pyran-4-yl)ethyl]-11,12,14,15-tetrahydro-2H,10H-pyrazolo[3′,4′:4,5][1,2,8]thiadiazacycloundecino[6,7,8-hi]indole-8-carboxylic acid 13,13-dioxide (Racemate 1)] | – | 2.8e-08 M
13 | – | 0.94 nM | 60 nM | Cc1c2c(nn1C)C(CCN1CCOCC1)N(C)S(=O)(=O)CCCn1c(C(=O)O)c(CCCOc3cccc4cc(F)ccc34)c3ccc(Cl)c-2c31 (racemic) [Example 65, (rac)-4-chloro-7-{3-[(6-fluoronaphthalen-1-yl)oxy]propyl}-2,3,14-trimethyl-15-(rac)-[2-(morpholin-4-yl)ethyl]-13,13-dioxo-10,11,12,13,14,15-hexahydro-2H-13lambda^6-pyrazolo[3′,4′:4,5][1,2,8]thiadiazacycloundecino[6,7,8-hi]indole-8-carboxylic acid (Mixture of Stereoisomers)] | – | 5.8e-08 M
14 | – | 0.52 nM | 590 nM | Cc1c2c(nn1C)CN(C)S(=O)(=O)CCCn1c(C(=O)O)c(CCCOc3cccc4ccccc34)c3ccc(Cl)c-2c31 (single isomer, unassigned; enantiomer 1) [Example 5, 4-Chloro-2,3,14-trimethyl-7-{3-[(naphthalen-1-yl)oxy]propyl}-13,13-dioxo-10,11,12,13,14,15-hexahydro-2H-13λ^6-pyrazolo[3′,4′:4,5][1,2,8]thiadiazacycloundecino[6,7,8-hi]indole-8-carboxylic acid-N-ethylethanamine salt (Enantiomer 1)] | – | 4.9e-07 M
15 | – | 1.7 nM | 1000 nM | CCc1c2c(nn1C)CN(C)S(=O)(=O)CCCn1c(C(=O)O)c(CCCOc3cccc4cc(F)ccc34)c3ccc(F)c-2c31 (single isomer, unassigned; enantiomer 1) [Example 8, (+)-3-Ethyl-4-fluoro-7-{3-[(6-fluoronaphthalen-1-yl)oxy]propyl}-2,14-dimethyl-13,13-dioxo-10,11,12,13,14,15-hexahydro-2H-13λ^6-pyrazolo[3′,4′:4,5][1,2,8]thiadiazacycloundecino-[6,7,8-hi]indole-8-carboxylic acid (Enantiomer 1)] | – | 7.7e-07 M

Row | SMILES | EC50 (SUDHL10; Homo sapiens, SU-DHL10, 3 h) | IC50 (MCL-1) | EC50 (SUDHL10; 3 hours) | IC50 (SUDHL5; Homo sapiens, SU-DHL-5, 5 h) | IC50 (SUDHL5)
16 | Cc1c2c(nn1C)CN(C1CC1)S(=O)(=O)CCCn1c(C(=O)O)c(CCCOc3cccc4cc(F)ccc34)c3ccc(Cl)c-2c31 (racemic) [Example 41, (rac)-4-chloro-14-cyclopropyl-7-{3-[(6-fluoro-1-naphthyl)oxy]propyl}-2,3-dimethyl-11,12,14,15-tetrahydro-2H,10H-pyrazolo[3′,4′:4,5][1,2,8]thiadiazacycloundecino[6,7,8-hi]indole-8-carboxylic acid 13,13-dioxide] | – | 1.3 nM | 1600 nM | – | 9.7e-07 M
